Measured values as given in patent US20240360119A1, “SMALL MOLECULE UREA DERIVATIVES AS STING ANTAGONISTS” (CURADEV PHARMA PVT. LTD., priority 2021, published 2024).
pIC50: −log10 of the molar value.

Test system: STING (IRF pathway reporter in THP1-Dual™ cells, THP-1 (HAQ))
Test: Reporter gene expression assay in THP-1 cells (THP1-Dual, IRF pathway Lucia luciferase, 2′,3′-cGAMP stimulation)
Assay type: cell-based, human
Conditions: 10 min preincubation, 5 μM 2′,3′-cGAMP, 20 hr, IRF pathway luciferase (QUANTI-Luc), IC50 range class
Method: THP1-Dual™ cells (Invivogen) were derived from the human THP-1 monocyte cell line by stable integration of two inducible reporter constructs. As a result, THP1-Dual™ cells allow the simultaneous study of the IRF pathway, by assessing the activity of a secreted luciferase (Lucia) and the NF-κB pathway, by monitoring the activity of secreted SEAP. 5×10^4 THP1-Dual™ cells were seeded in 384-well plates in growth medium and preincubated with novel compounds for 10 minutes followed by stimulation with 5 μM 2′,3′-cGAMP. After 20 hr of stimulation the supernatant was removed and the IRF pathway reporter protein was readily measured in the cell culture supernatant using QUANTI-Luc™ (Invivogen), a luciferase detection reagent on a Spectramax i3X luminometer.
In the tables below, IC50 value ranges for exemplary compounds are given. The IC50 ranges are indicated as “A” for values less than or equal to 1 μM, “B” for values greater than 1 μM and less than or equal to 10 μM, and “C” for values greater than 10 μM.

| SMILES | pIC50 (Homo sapiens) | pIC50 |
| --- | --- | --- |
| CN(C)C(=O)CC(NC(=O)Nc1ccc2cc[nH]c2c1)c1ccc2c(c1)N(Cc1ccccc1)CCS2 (racemic) [Example 4, 3-(3-(1H-indol-6-yl)ureido)-3-(4-benzyl-3,4-dihydro-2H-benzo[b][1,4]thiazin-6-yl)-N,N-dimethylpropanamide] | 5.00 to 6.00 | – |
| CN(C)C(=O)CC(NC(=O)Nc1ccc2cc[nH]c2c1)c1ccc2c(c1)N(Cc1ccccc1)CCS2 (single isomer, unassigned) [Example 5, 3-(3-(1H-indol-6-yl)ureido)-3-(4-benzyl-3,4-dihydro-2H-benzo[b][1,4]thiazin-6-yl)-N,N-dimethylpropanamide] | 5.00 to 6.00 | – |
| CN(C)C(=O)CC(NC(=O)Nc1ccc2cc[nH]c2c1)c1ccc2c(c1)N(Cc1ccccc1)CCS2 (single isomer, unassigned) [Example 6, 3-(3-(1H-indol-6-yl)ureido)-3-(4-benzyl-3,4-dihydro-2H-benzo[b][1,4]thiazin-6-yl)-N,N-dimethylpropanamide] | – | 5.00 to 6.00 |
| O=C(Nc1ccc2cc[nH]c2c1)NC(CC(O)CO)c1ccc2c(c1)N(Cc1ccccc1)CCO2 (single isomer, unassigned) [Example 7, 1-(1-(4-Benzyl-3,4-dihydro-2H-benzo[b][1,4]oxazin-6-yl)-3,4-dihydroxybutyl)-3-(1H-indol-6-yl)urea] | < 5.00 | – |
| O=C(Nc1ccc2cc[nH]c2c1)NC(CC(O)CO)c1ccc2c(c1)N(Cc1ccccc1)CCO2 (single isomer, unassigned) [Example 8, 1-(1-(4-Benzyl-3,4-dihydro-2H-benzo[b][1,4]oxazin-6-yl)-3,4-dihydroxybutyl)-3-(1H-indol-6-yl)urea] | – | < 5.00 |
| O=C(NCc1ccc2c(c1)N(Cc1ccccc1)CCS2)Nc1ccc2cc[nH]c2c1 [Example 1, 1-((4-Benzyl-3,4-dihydro-2H-benzo[b][1,4]thiazin-6-yl)methyl)-3-(1H-indol-6-yl)urea] | ≥ 6.00 | – |
| O=C(NCc1ccc2c(c1)OCC(=O)N2Cc1ccccc1)Nc1ccc2cc[nH]c2c1 [Example 2, 1-((4-Benzyl-3-oxo-3,4-dihydro-2H-benzo[b][1,4]oxazin-7-yl)methyl)-3-(1H-indol-6-yl)urea] | 5.00 to 6.00 | – |
| O=C(NCc1ccc2c(c1)OCCN2Cc1ccccc1)Nc1ccc2cc[nH]c2c1 [Example 3, 1-((4-Benzyl-3,4-dihydro-2H-benzo[b][1,4]oxazin-7-yl)methyl)-3-(1H-indol-6-yl)urea] | ≥ 6.00 | – |
| O=C(NCc1ccc2c(c1)N(c1ccccc1)CCS2)Nc1ccc2cc[nH]c2c1 [Example 14, 1-(1H-Indol-6-yl)-3-((4-phenyl-3,4-dihydro-2H-benzo[b][1,4]thiazin-6-yl)methyl)urea] | ≥ 6.00 | – |
| O=C(NCc1ccc2c(c1)N(Cc1ccccc1)CCO2)Nc1ccc2cc[nH]c2c1 [Example 15, 1-((4-benzyl-3,4-dihydro-2H-benzo[b][1,4]oxazin-6-yl)methyl)-3-(1H-indol-6-yl)urea] | ≥ 6.00 | – |
| O=C(NCc1ccc2c(c1)SCCN2Cc1ccccc1)Nc1ccc2cc[nH]c2c1 [Example 16, 1-((4-benzyl-3,4-dihydro-2H-benzo[b][1,4]thiazin-7-yl)methyl)-3-(1H-indol-6-yl)urea] | ≥ 6.00 | – |
| O=C(NCc1ccc2c(c1)SCC(=O)N2Cc1ccccc1)Nc1ccc2cc[nH]c2c1 [Example 17, 1-((4-benzyl-3-oxo-3,4-dihydro-2H-benzo[b][1,4]thiazin-7-yl)methyl)-3-(1H-indol-6-yl)urea] | ≥ 6.00 | – |
| O=C(NCc1ccc2c(c1)N(Cc1ccccc1)C(=O)CS2)Nc1ccc2cc[nH]c2c1 [Example 18, 1-((4-benzyl-3-oxo-3,4-dihydro-2H-benzo[b][1,4]thiazin-6-yl)methyl)-3-(1H-indol-6-yl)urea] | 5.00 to 6.00 | – |
| O=C(NCc1ccc2c(c1)N(c1ccccc1)CCO2)Nc1ccc2cc[nH]c2c1 [Example 19, 1-(1H-indol-6-yl)-3-((4-phenyl-3,4-dihydro-2H-benzo[b][1,4]oxazin-6-yl)methyl)urea] | ≥ 6.00 | – |
| O=C(NCc1ccc2c(c1)SCCN2c1ccccc1)Nc1ccc2cc[nH]c2c1 [Example 20, 1-(1H-indol-6-yl)-3-((4-phenyl-3,4-dihydro-2H-benzo[b][1,4]thiazin-7-yl)methyl)urea] | 5.00 to 6.00 | – |
| O=C(NCc1ccc2c(c1)OCCN2c1ccccc1)Nc1ccc2cc[nH]c2c1 [Example 21, 1-(1H-indol-6-yl)-3-((4-phenyl-3,4-dihydro-2H-benzo[b][1,4]oxazin-7-yl)methyl)urea] | ≥ 6.00 | – |
| O=C(Nc1ccc2cc[nH]c2c1)NC(CC(O)CO)c1ccc2c(c1)N(Cc1ccccc1)CC[S+]2[O-] (centres unmarked) [Example 25, 1-(1-(4-benzyl-1-oxido-3,4-dihydro-2H-benzo[b][1,4]thiazin-6-yl)-3,4-dihydroxybutyl)-3-(1H-indol-6-yl)urea] | < 5.00 | – |
| CON(C)C(=O)CC(NC(=O)Nc1ccc2cc[nH]c2c1)c1ccc2c(c1)N(Cc1ccccc1)CCS2 (centres unmarked) [Example 28, 3-(3-(1H-indol-6-yl)ureido)-3-(4-benzyl-3,4-dihydro-2H-benzo[b][1,4]thiazin-6-yl)-N-methoxy-N-methylpropanamide] | 5.00 to 6.00 | – |
| CN(CCO)C(=O)CC(NC(=O)Nc1ccc2cc[nH]c2c1)c1ccc2c(c1)N(Cc1ccccc1)CCS2 (centres unmarked) [Example 31, 3-(3-(1H-indol-6-yl)ureido)-3-(4-benzyl-3,4-dihydro-2H-benzo[b][1,4]thiazin-6-yl)-N-(2-hydroxyethyl)-N-methylpropanamide] | 5.00 to 6.00 | – |
| CN(C(=O)CC(NC(=O)Nc1ccc2cc[nH]c2c1)c1ccc2c(c1)N(Cc1ccccc1)CCS2)C1CC1 (centres unmarked) [Example 32, 3-(3-(1H-indol-6-yl)ureido)-3-(4-benzyl-3,4-dihydro-2H-benzo[b][1,4]thiazin-6-yl)-N-cyclopropyl-N-methylpropanamide] | < 5.00 | – |

Second part, the compound after the results:

| pIC50 (Homo sapiens) | pIC50 | SMILES |
| --- | --- | --- |
| ≥ 6.00 | – | O=C(Nc1ccc2cc[nH]c2c1)NC(CO)c1ccc2c(c1)N(Cc1ccccc1)CCS2 (racemic) [Example 11, 1-(1-(4-Benzyl-3,4-dihydro-2H-benzo[b][1,4]thiazin-6-yl)-2-hydroxyethyl)-3-(1H-indol-6-yl)urea] |
| ≥ 6.00 | – | O=C(Nc1ccc2cc[nH]c2c1)NC(CO)c1ccc2c(c1)N(Cc1ccccc1)CCS2 (single isomer, unassigned) [Example 12, 1-(1-(4-benzyl-3,4-dihydro-2H-benzo[b][1,4]thiazin-6-yl)-2-hydroxyethyl)-3-(1H-indol-6-yl)urea] |
| – | ≥ 6.00 | O=C(Nc1ccc2cc[nH]c2c1)NC(CO)c1ccc2c(c1)N(Cc1ccccc1)CCS2 (single isomer, unassigned) [Example 13, 1-(1-(4-benzyl-3,4-dihydro-2H-benzo[b][1,4]thiazin-6-yl)-2-hydroxyethyl)-3-(1H-indol-6-yl)urea] |
| ≥ 6.00 | – | C=CCC(NC(=O)Nc1ccc2cc[nH]c2c1)c1ccc2c(c1)N(Cc1ccccc1)CCS2 (centres unmarked) [Example 9, 1-(1-(4-Benzyl-3,4-dihydro-2H-benzo[b][1,4]thiazin-6-yl)but-3-en-1-yl)-3-(1H-indol-6-yl)urea] |
| < 5.00 | – | O=C(O)CC(NC(=O)Nc1ccc2cc[nH]c2c1)c1ccc2c(c1)N(Cc1ccccc1)CCS2 (centres unmarked) [Example 10, 3-(3-(1H-Indol-6-yl)ureido)-3-(4-benzyl-3,4-dihydro-2H-benzo[b][1,4]thiazin-6-yl)propanoic acid] |
| < 5.00 | – | O=C(Nc1ccc2cc[nH]c2c1)NC(CCN1CCOCC1)c1ccc2c(c1)N(Cc1ccccc1)CCS2 (centres unmarked) [Example 22, 1-(1-(4-benzyl-3,4-dihydro-2H-benzo[b][1,4]thiazin-6-yl)-3-morpholinopropyl)-3-(1H-indol-6-yl)urea] |
| ≥ 6.00 | – | NC(=O)CC(NC(=O)Nc1ccc2cc[nH]c2c1)c1ccc2c(c1)N(Cc1ccccc1)CCS2 (centres unmarked) [Example 23, 3-(3-(1H-indol-6-yl)ureido)-3-(4-benzyl-3,4-dihydro-2H-benzo[b][1,4]thiazin-6-yl)propanamide] |
| < 5.00 | – | O=C(Nc1ccc2cc[nH]c2c1)NC(CCO)c1ccc2c(c1)N(Cc1ccccc1)CCS2 (centres unmarked) [Example 24, 1-(1-(4-benzyl-3,4-dihydro-2H-benzo[b][1,4]thiazin-6-yl)-3-hydroxypropyl)-3-(1H-indol-6-yl)urea] |
| 5.00 to 6.00 | – | CNC(=O)CC(NC(=O)Nc1ccc2cc[nH]c2c1)c1ccc2c(c1)N(Cc1ccccc1)CCS2 (centres unmarked) [Example 26, 3-(3-(1H-indol-6-yl)ureido)-3-(4-benzyl-3,4-dihydro-2H-benzo[b][1,4]thiazin-6-yl)-N-methylpropanamide] |
| 5.00 to 6.00 | – | O=C(Nc1ccc2cc[nH]c2c1)NC(CC(=O)N1CCCC1)c1ccc2c(c1)N(Cc1ccccc1)CCS2 (centres unmarked) [Example 27, 1-(1-(4-benzyl-3,4-dihydro-2H-benzo[b][1,4]thiazin-6-yl)-3-oxo-3-(pyrrolidin-1-yl)propyl)-3-(1H-indol-6-yl)urea] |
| < 5.00 | – | O=C(Nc1ccc2cc[nH]c2c1)NC(CC(=O)N1CCC(O)C1)c1ccc2c(c1)N(Cc1ccccc1)CCS2 (centres unmarked) [Example 29, 1-(1-(4-benzyl-3,4-dihydro-2H-benzo[b][1,4]thiazin-6-yl)-3-(3-hydroxypyrrolidin-1-yl)-3-oxopropyl)-3-(1H-indol-6-yl)urea] |
| 5.00 to 6.00 | – | O=C(Nc1ccc2cc[nH]c2c1)NC(CC(=O)N1CCOCC1)c1ccc2c(c1)N(Cc1ccccc1)CCS2 (centres unmarked) [Example 30, 1-(1-(4-benzyl-3,4-dihydro-2H-benzo[b][1,4]thiazin-6-yl)-3-morpholino-3-oxopropyl)-3-(1H-indol-6-yl)urea] |
